How the values were obtained:
[1] = test system: human telomeric (F21T) G-quadruplex DNA; test: FRET quadruplex stabilisation assay, F21T; format: binding; settings: compound at 1 μM, 60 mM potassium cacodylate buffer pH 7.4
Excerpt: (§1) The ability of the naphthalene diimide compounds to stabilize quadruplex DNA sequences was investigated using a fluorescence resonance energy transfer (FRET) assay modified to be used as a high-throughput screen in a 96-well format. Several quadruplex sequences were studied (including the human telomeric G-quadruplex DNA sequence 5′-FAM-d(GGG[TTAGGG]3)-TAMRA-3′ and the duplex sequence 5′-FAM-d[…]-HEG-[…]-TAMRA-3′ (HEG linker: [(—CH2—CH2—O—)6.
(§2) The labelled oligonucleotides have attached to them the donor fluorophore FAM: 6-carboxyfluorescein and the acceptor fluorophore TAMRA: 6-carboxytetramethylrhodamine. The FRET probe sequences were diluted from stock to the correct concentration (400 nM) in a 60 mM potassium cacodylate buffer (pH 7.4) and then annealed by heating to 85° C. for 10 min, followed by cooling to room temperature in the heating block. The compound was stored as a 10 mM stock solution in DMSO; final solutions (at 2× concentration) were prepared using 10 mM HCl in the initial 1:10 dilution, after which 60 mM potassium cacodylate buffer (pH 7.4) was used in all subsequent steps. The maximum HCl concentration in the reaction volume (at a ligand concentration of 20 μM) is thus 200 μM, well within the range of the buffer used. Relevant controls were also performed to check for interference with the assay. 96-Well plates (MJ Research, Waltham, Mass.) were prepared by aliquoting 50 μl of the annealed DNA into each well, followed by 50 μl of the compound solutions. Measurements were made on a DNA Engine Opticon (MJ Research) with excitation at 450-495 nm and detection at 515-545 nm. Fluorescence readings were taken at intervals of 0.5° C. in the range 30-100° C., with a constant temperature being maintained for 30 s prior to each reading to ensure a stable value. Final analysis of the data was carried out using a script written in the program Origin 7.0 (OriginLab Corp., Northampton, Mass.). The advanced curve-fitting function in Origin 7.0 was used for calculation of ΔTm values. All determinations were performed in triplicate or better. Esds in ΔTm are ±0.1° C.

[2] = test system: Hsp90B sequence from the HSP90 promoter; test: FRET quadruplex stabilisation assay, Hsp90B; format: binding; settings: compound at 1 μM, 60 mM potassium cacodylate buffer pH 7.4
Excerpt: as §1, §2

[3] = test system: Kras21 sequence from the promoter region of the kras gene; test: FRET quadruplex stabilisation assay, Kras21; format: binding; settings: compound at 1 μM, 60 mM potassium cacodylate buffer pH 7.4
Excerpt: as §1, §2

[4] = test system: Kras32 sequence from the promoter region of the kras gene; test: FRET quadruplex stabilisation assay, Kras32; format: binding; settings: compound at 1 μM, 60 mM potassium cacodylate buffer pH 7.4
Excerpt: as §1, §2

[5] = test system: Bcl-2 sequence from the promoter region of the bcl-2 gene; test: FRET quadruplex stabilisation assay, Bcl-2; format: binding; settings: compound at 1 μM, 60 mM potassium cacodylate buffer pH 7.4
Excerpt: as §1, §2

[6] = test system: Tloop (representing duplex DNA); test: FRET assay, Tloop duplex DNA; format: binding; settings: compound at 1 μM, 60 mM potassium cacodylate buffer pH 7.4
Excerpt: as §1, §2

A549 (lung cancer) cells = test: SRB growth inhibition, A549; format: cell-based, human; settings: 96 hr, SRB assay; read-out: short-term 96 hr IC50 A549
Protocol: (§3) Human cancer cell lines and the somatic human cell line WI-38 (lung fibroblast) were purchased from the American Type Culture Collection. Cell lines were maintained in appropriate medium supplemented with 10% foetal bovine serum (Invitrogen, UK), 2 mM L-glutamine (Invitrogen, Netherlands), and other components as specified by the suppliers. Cell lines were maintained at 37° C., 5% CO2 and routinely passaged. Drugs were dissolved in DMSO and filtered through 0.22 μm pore-size filter units before addition to cell line appropriate media. Cellular growth inhibition was measured using the sulforhodamine B (SRB) assay in 96 well plates. Fifty percent inhibitory concentrations (IC50) were determined by taking the mean absorbance at 540 nm for each drug concentration expressed as a percentage of the absorbance of untreated control wells.

MCF7 (breast) cells = test: SRB growth inhibition, MCF7; format: cell-based, human; settings: 96 hr, SRB assay; read-out: short-term 96 hr IC50 MCF7
Protocol: as §3

[7] = test system: Mia-PaCa2 (pancreatic cancer) cells; test: SRB growth inhibition, MiaPaCa2; format: cell-based, human; settings: 96 hr, SRB assay; read-out: short-term 96 hr IC50 MiaPaCa2
Protocol: as §3

[8] = test system: Panc1 (pancreatic cancer) cells; test: SRB growth inhibition, Panc1; format: cell-based, human; settings: 96 hr, SRB assay; read-out: short-term 96 hr IC50 Panc1
Protocol: as §3

[9] = test system: ALT (Alternative Lengthening of Telomeres) cell line; test: SRB growth inhibition, ALT; format: cell-based, human; settings: 96 hr, SRB assay; read-out: short-term 96 hr IC50 ALT
Protocol: as §3

[10] = test system: WI38 (lung fibroblast) cells; test: SRB growth inhibition, WI38; format: cell-based, human; settings: 96 hr, SRB assay; read-out: short-term 96 hr IC50 WI38
Protocol: as §3

SMILES: O=C1c2ccc3c4c(c(NCCN5CCCC5)cc(c24)C(=O)N1CCCN1CCOCC1)C(=O)N(CCCN1CCOCC1)C3=O [Compound 4c, 2,7-bis(3-morpholinopropyl)-4-((2-(pyrrolidin-1-yl)ethyl)amino)benzo[Imn][3,8]phenanthroline-1,3,6,8(2H,7H)-tetraone]
- ΔTm F21T [1]: 11.8 °C
- ΔTm Hsp90B [2]: 12.7 °C
- ΔTm Kras21 [3]: 11.0 °C
- ΔTm Kras32 [4]: 9.6 °C
- ΔTm Bcl-2 [5]: 13.3 °C
- ΔTm Tloop [6]: 0.6 °C
- IC50 (A549 (lung cancer) cells): 24 nM
- IC50 (MCF7 (breast) cells): 159 nM
- IC50 [7]: 12 nM
- IC50 [8]: 22 nM
- IC50 [9]: 93 nM
- IC50 [10]: 1190 nM
